Measured values from patent US20140171357A1, “VANCOMYCIN DERIVATIVES” (Seachald Pharmaceuticals, Inc., priority 2011, published 2014).
In brackets after ≈: the same amount, converted by molar mass.

Key:
S. pneumoniae (22) = experiment: MIC broth microdilution, S. pneumoniae; conditions: for MIC 50% / MIC 90%: S. pneumoniae (22), MHB + lysed horse blood
[1] = test system: methicillin-resistant S. aureus (MRSA, 22); experiment: MIC broth microdilution, MRSA; conditions: for MIC 50% / MIC 90%: MRSA (22)
[2] = test system: β-hemolytic streptococci (23); experiment: MIC broth microdilution, β-hemolytic streptococci; conditions: for MIC 50% / MIC 90%: β-hemolytic streptococci (23), MHB + lysed horse blood
[3] = test system: VanA vancomycin-resistant E. faecium (10); experiment: MIC broth microdilution, VanA E. faecium; conditions: for MIC 50% / MIC 90%: E. faecium, VanA (10)
[4] = test system: methicillin-susceptible S. aureus (MSSA, 22); experiment: MIC broth microdilution, MSSA; conditions: for MIC 50% / MIC 90%: MSSA (22)
VanC enterococci (22) = experiment: MIC broth microdilution, vanC-carrying enterococci; conditions: for MIC 50% / MIC 90%: VanC enterococci (22)
[5] = test system: Staphylococcus aureus (65 strains); experiment: MIC broth microdilution, S. aureus all isolates; conditions: for MIC 50% / MIC 90%: S. aureus (65), all resistance subsets
[6] = test system: VanA vancomycin-resistant E. faecalis (11); experiment: MIC broth microdilution, VanA E. faecalis; conditions: for MIC 50% / MIC 90%: E. faecalis, VanA (11)
[7] = test system: vancomycin-susceptible E. faecalis (23); experiment: MIC broth microdilution, vancomycin-susceptible E. faecalis; conditions: for MIC 50% / MIC 90%: E. faecalis, vancomycin-susceptible (23)
[8] = test system: Staphylococcus epidermidis (43 strains); experiment: MIC broth microdilution, S. epidermidis; conditions: for MIC 50% / MIC 90%: S. epidermidis (43)
[9] = test system: vancomycin-susceptible E. faecium (21); experiment: MIC broth microdilution, vancomycin-susceptible E. faecium; conditions: for MIC 50% / MIC 90%: E. faecium, vancomycin-susceptible (21)
[10] = test system: VanB vancomycin-resistant E. faecalis (12); experiment: MIC broth microdilution, VanB E. faecalis; conditions: for MIC 50% / MIC 90%: E. faecalis, VanB (12)
S. aureus ATCC 25923 = experiment: Neutropenic murine thigh infection model; conditions: for AUCc-t (AUC difference between control and treated animals): 24 h time kill
[11] = test system: heterogeneous VISA (hVISA, 10); experiment: MIC broth microdilution, hVISA
[12] = test system: vancomycin-intermediate S. aureus (VISA, 5); experiment: MIC broth microdilution, VISA
[13] = test system: VanB vancomycin-resistant E. faecium (10); experiment: MIC broth microdilution, VanB E. faecium; conditions: for MIC 50% / MIC 90%: E. faecium, VanB (10)
[14] = test system: vancomycin-resistant S. aureus (VRSA, 6); experiment: MIC broth microdilution, VRSA
[15] = 1 mg/kg single intraperitoneal dose
[16] = 4 mg/kg single intraperitoneal dose
[17] = 16 mg/kg single intraperitoneal dose

## CNC(CC(C)C)C(=O)NC1C(=O)NC(CC(N)=O)C(=O)NC2C(=O)NC3C(=O)NC(C(=O)NC(C(=O)O)c4cc(O)c(CNCCOCCOCCN)c(O)c4-c4cc3ccc4O)C(O)c3ccc(c(Cl)c3)Oc3cc2cc(c3OC2OC(CO)C(O)C(O)C2OC2CC(C)(NCc3ccc(-c4ccc(Cl)cc4)cc3)C(O)C(C)O2)Oc2ccc(cc2Cl)C1O (centres unmarked) [Compound 11]
S. pneumoniae (22)
  MIC 50%: 0.06 µg/mL
  MIC 90%: 0.06 µg/mL
[1]
  MIC 50%: 0.12 µg/mL (≈ 0.0663 µM)
  MIC 90%: 0.12 µg/mL (≈ 0.0663 µM)
[2]
  MIC 50%: 0.06 µg/mL
  MIC 90%: 0.12 µg/mL
[3]
  MIC 50%: 2 µg/mL (≈ 1.1 µM)
  MIC 90%: 4 µg/mL (≈ 2.21 µM)
[4]
  MIC 50%: 0.12 µg/mL (≈ 0.0663 µM)
  MIC 90%: 0.12 µg/mL (≈ 0.0663 µM)
VanC enterococci (22)
  MIC 50%: 0.25 µg/mL (≈ 0.138 µM)
  MIC 90%: 0.5 µg/mL (≈ 0.276 µM)
[5]
  MIC 50%: 0.12 µg/mL (≈ 0.0663 µM)
  MIC 90%: 0.5 µg/mL (≈ 0.276 µM)
[6]
  MIC 50%: 4 µg/mL (≈ 2.21 µM)
  MIC 90%: 8 µg/mL (≈ 4.42 µM)
[7]
  MIC 50%: 0.25 µg/mL (≈ 0.138 µM)
  MIC 90%: 0.25 µg/mL (≈ 0.138 µM)
[8]
  MIC 50%: 0.06 µg/mL (≈ 0.0331 µM)
  MIC 90%: 0.06 µg/mL (≈ 0.0331 µM)
[9]
  MIC 50%: 0.06 µg/mL (≈ 0.0331 µM)
  MIC 90%: 0.12 µg/mL (≈ 0.0663 µM)
[10]
  MIC 50%: 0.25 µg/mL (≈ 0.138 µM)
  MIC 90%: 0.25 µg/mL (≈ 0.138 µM)
S. aureus ATCC 25923; [15]
  Max Kill (maximum decrease from initial infection level): 0.59 Log10 CFU/thigh
  AUCc-t (AUC difference between control and treated animals): 12.9 (Log10 CFU/thigh)/hr
S. aureus ATCC 25923; [16]
  Max Kill (maximum decrease from initial infection level): 0.46 Log10 CFU/thigh
  AUCc-t (AUC difference between control and treated animals): 10.8 (Log10 CFU/thigh)/hr
S. aureus ATCC 25923; [17]
  Max Kill (maximum decrease from initial infection level): −0.39 Log10 CFU/thigh
  AUCc-t (AUC difference between control and treated animals): 34.7 (Log10 CFU/thigh)/hr
[11]
  MIC 50%: 0.12 µg/mL (≈ 0.0663 µM)
  MIC 90%: 0.12 µg/mL (≈ 0.0663 µM)
[12]
  MIC 50%: 0.25 µg/mL (≈ 0.138 µM)
[13]
  MIC 50%: 0.06 µg/mL (≈ 0.0331 µM)
  MIC 90%: 0.12 µg/mL (≈ 0.0663 µM)
[14]
  MIC 50%: 4 µg/mL (≈ 2.21 µM)

## Teicoplanin [reference compound]
S. pneumoniae (22)
  MIC 50%: 0.12 µg/mL
  MIC 90%: 0.12 µg/mL
[1]
  MIC 50%: 0.5 µg/mL
  MIC 90%: 0.5 µg/mL
[2]
  MIC 50%: 0.12 µg/mL
  MIC 90%: 0.25 µg/mL
[3]
  MIC 50%: 64 µg/mL
  MIC 90%: >64 µg/mL
[4]
  MIC 50%: 0.5 µg/mL
  MIC 90%: 1 µg/mL
VanC enterococci (22)
  MIC 50%: 1 µg/mL
  MIC 90%: 2 µg/mL
[5]
  MIC 50%: 0.5 µg/mL
  MIC 90%: 8 µg/mL
[6]
  MIC 50%: 64 µg/mL
  MIC 90%: >64 µg/mL
[7]
  MIC 50%: 0.5 µg/mL
  MIC 90%: 0.5 µg/mL
[8]
  MIC 50%: 2 µg/mL
  MIC 90%: 4 µg/mL
[9]
  MIC 50%: 1 µg/mL
  MIC 90%: 1 µg/mL
[10]
  MIC 50%: 0.5 µg/mL
  MIC 90%: 1 µg/mL
[13]
  MIC 50%: 1 µg/mL
  MIC 90%: 1 µg/mL

## CN[C@H](CC(C)C)C(=O)N[C@H]1C(=O)N[C@@H](CC(N)=O)C(=O)N[C@H]2C(=O)N[C@H]3C(=O)N[C@H](C(=O)N[C@H](C(=O)O)c4cc(O)cc(O)c4-c4cc3ccc4O)[C@H](O)c3ccc(c(Cl)c3)Oc3cc2cc(c3O[C@@H]2O[C@H](CO)[C@@H](O)[C@H](O)[C@H]2O[C@H]2C[C@](C)(N)[C@H](O)[C@H](C)O2)Oc2ccc(cc2Cl)[C@H]1O [Vancomycin]
[1]; Staphylococcus aureus, MRSA
  MIC50: 0.5 µg/mL (≈ 0.345 µM)
  MIC90: 1 µg/mL (≈ 0.69 µM)
[3]; Enterococcus faecium
  MIC50: > 64 µg/mL
  MIC90: > 64 µg/mL
[4]; Staphylococcus aureus, MSSA
  MIC50: 0.5 µg/mL (≈ 0.345 µM)
  MIC90: 1 µg/mL (≈ 0.69 µM)
VanC enterococci (22)
  MIC50: 4 µg/mL (≈ 2.76 µM)
  MIC90: 4 µg/mL (≈ 2.76 µM)
[5]; Staphylococcus aureus
  MIC50: 1 µg/mL (≈ 0.69 µM)
  MIC90: 4 µg/mL (≈ 2.76 µM)
[6]; Enterococcus faecalis
  MIC50: > 64 µg/mL
  MIC90: > 64 µg/mL
[7]; Enterococcus faecalis
  MIC50: 1 µg/mL (≈ 0.69 µM)
  MIC90: 2 µg/mL (≈ 1.38 µM)
[8]; Staphylococcus epidermidis
  MIC50: 1 µg/mL (≈ 0.69 µM)
  MIC90: 2 µg/mL (≈ 1.38 µM)
[9]; Enterococcus faecium
  MIC50: 0.5 µg/mL (≈ 0.345 µM)
  MIC90: 1 µg/mL (≈ 0.69 µM)
[10]; Enterococcus faecalis
  MIC50: > 64 µg/mL
  MIC90: > 64 µg/mL
[13]; Enterococcus faecium
  MIC50: 64 µg/mL (≈ 44.2 µM)
  MIC90: > 64 µg/mL

## CCCCCCCCCCNCCNC1(C)CC(OC2C(Oc3c4cc5cc3Oc3ccc(cc3Cl)C(O)C3NC(=O)C(NC(=O)C5NC(=O)C(CC(N)=O)NC(=O)C(NC(=O)C(CC(C)C)NC)C(O)c5ccc(c(Cl)c5)O4)c4ccc(O)c(c4)-c4c(cc(O)c(CNCCOCCOCC[N+](C)(C)C)c4O)C(C(=O)O)NC3=O)OC(CO)C(O)C2O)OC(C)C1O (centres unmarked) [Compound 1]
S. pneumoniae (22); S. pneumoniae
  fold more potent than linezolid: 32 fold
S. pneumoniae (22)
  MIC 50%: 0.015 µg/mL
  MIC 90%: 0.03 µg/mL
[2]; β-hemolytic streptococci
  fold more potent than teicoplanin and daptomycin: two- to four
  fold more potent than vancomycin: four- to eight
[2]
  MIC 50%: 0.03 µg/mL
  MIC 90%: 0.06 µg/mL
[3]
  MIC 50%: 4 µg/mL
  MIC 90%: 8 µg/mL
[4]
  MIC 50%: 0.06 µg/mL
  MIC 90%: 0.06 µg/mL
VanC enterococci (22)
  MIC 50%: 0.06 µg/mL
  MIC 90%: 0.25 µg/mL
[5]
  MIC 50%: 0.06 µg/mL
  MIC 90%: 0.12 µg/mL
[6]
  MIC 50%: 8 µg/mL
  MIC 90%: 8 µg/mL
[7]
  MIC 50%: 0.06 µg/mL
  MIC 90%: 0.12 µg/mL
[8]
  MIC 50%: 0.03 µg/mL
  MIC 90%: 0.06 µg/mL
[9]
  MIC 50%: 0.03 µg/mL
  MIC 90%: 0.03 µg/mL
[10]
  MIC 50%: 0.12 µg/mL
  MIC 90%: 0.12 µg/mL
S. aureus ATCC 25923; [15]
  Max Kill (maximum decrease from initial infection level): 0.15 Log10 CFU/thigh
  AUCc-t (AUC difference between control and treated animals): 28 (Log10 CFU/thigh)/hr
S. aureus ATCC 25923; [16]
  Max Kill (maximum decrease from initial infection level): −1.14 Log10 CFU/thigh
  AUCc-t (AUC difference between control and treated animals): 32.7 (Log10 CFU/thigh)/hr
S. aureus ATCC 25923; [17]
  Max Kill (maximum decrease from initial infection level): −1.07 Log10 CFU/thigh
  AUCc-t (AUC difference between control and treated animals): 60.4 (Log10 CFU/thigh)/hr
S. aureus ATCC 25923; neutropenic soft tissue infection model
  in vivo efficacy against S. aureus (in words): bactericidal characteristics and prolonged in vivo activity
[11]
  MIC 50%: 0.06 µg/mL
  MIC 90%: 0.06 µg/mL
[12]
  MIC 50%: 0.12 µg/mL
[13]
  MIC 50%: 0.015 µg/mL
  MIC 90%: 0.03 µg/mL
[14]
  MIC 50%: 2 µg/mL
